“And” between values parts separate entries of the source, which are not always exact repeats. Equal entries are not always repeated.
Test system: rhesus monkeys with spontaneous chronic kidney disease (CKD)
Experiment: Effect on UACR (proteinuria), 8-week oral administration
Format: in vivo, Macaca mulatta (Rhesus Macaque)
Details: for MALB / UACR: per animal + Mean ± SD; for UACR change rate: 8 weeks vs baseline, negative = decrease; for UACR Benefit assessment: per animal
Procedure: CKD-EPI rating […]-G3b, glomerular filtration rate eGFR: 30 59 ml/min/1.73 m^2; or moderate to severe increase in proteinuria (A2-A3): urine albumin/creatinine ratio (UACR)>15 mg/g-350 mg/g (4-6 hour urine collection), vs. age-matched control group 3±2 mg/g. In the trial, animals were brought in three stages. […] ELISA kit was used for NT-proBNP test. [table]

[1] = 1 mg/kg oral once a day, 4 weeks
[2] = 1 mg/kg oral once a day, 4 weeks, mean
[3] = 1 mg/kg oral once a day, 8 weeks
[4] = 1 mg/kg oral once a day, 8 weeks, mean
[5] = 1 mg/kg oral once a day, Baseline
[6] = 1 mg/kg oral once a day, Baseline, mean
[7] = 2 mg/kg oral once a day, 4 weeks
[8] = 2 mg/kg oral once a day, 4 weeks, mean
[9] = 2 mg/kg oral once a day, 8 weeks
[10] = 2 mg/kg oral once a day, 8 weeks, mean
[11] = 2 mg/kg oral once a day, Baseline
[12] = 2 mg/kg oral once a day, Baseline, mean
[13] = 5 mg/kg oral once a day, 8 weeks
[14] = 5 mg/kg oral once a day, 8 weeks, mean
[15] = 5 mg/kg oral once a day, Baseline
[16] = 5 mg/kg oral once a day, Baseline, mean

SMILES: COC(=O)NCCCn1nc([C@@H](C)N(C(=O)[C@H]2CNCCO2)C2CC2)c2ccc(C)nc21.O=C(O)C[C@H](O)C(=O)O [malate of compound of Formula I]
- MALB [1]: 4.6 mg/L and 34.1 mg/L and 1.4 mg/L and 5.1 mg/L and 1.3 mg/L
- UACR [1]: 15.0 mg/g and 28.1 mg/g and 7.2 mg/g and 4.7 mg/g and 8.1 mg/g
- MALB [2]: 9.3 ± 14.0 mg/L
- UACR [2]: 12.6 mg/g
- UACR change rate (1 mg/kg oral once a day, per animal + Mean ± SD (2/5 animals in statistics)): −39.14% and 8.44%
- UACR change rate (1 mg/kg oral once a day, per animal + Mean ± SD (2/5 animals in statistics), mean): −15.35%
- UACR Benefit assessment [3]: Benefit and No
- MALB [3]: 5.2 mg/L and 38.4 mg/L and 0.8 mg/L and 7.6 mg/L and 1.1 mg/L
- UACR [3]: 20.0 mg/g and 32.5 mg/g and 3.1 mg/g and 2.6 mg/g and 6.1 mg/g
- MALB [4]: 10.6 ± 15.8 mg/L
- UACR [4]: 12.9 ± 13.0 mg/g
- UACR Benefit assessment (1 mg/kg oral once a day, 8 weeks, listed as malate of compound of formula I): The benefit was not obvious in one case
- MALB [5]: 9.5 mg/L and 26.8 mg/L and 0.6 mg/L and 0.9 mg/L (2×)
- UACR [5]: 32.8 mg/g and 30.0 mg/g and 2.9 mg/g and 1.6 mg/g and 4.1 mg/g
- MALB [6]: 7.7 ± 11.3 mg/L
- UACR [6]: 14.3 mg/g
- UACR of W8 decreased by, compared with the baseline (1 mg/kg qd, one animal): 39%
- MALB [7]: 1.0 mg/L and 12.5 mg/L and 5.3 mg/L and 103.7 mg/L and 2.4 mg/L
- UACR [7]: 3.1 mg/g and 7.9 mg/g and 12.7 mg/g and 92.9 mg/g and 3.6 mg/g
- MALB [8]: 25.0 ± 44.2 mg/L
- UACR [8]: 24.0 mg/g
- UACR change rate (2 mg/kg oral once a day, per animal + Mean ± SD (3/5 animals in statistics, p < 0.01 vs placebo)): −85.13% and −51.06% and −61.81%
- UACR change rate (2 mg/kg oral once a day, per animal + Mean ± SD (3/5 animals in statistics, p < 0.01 vs placebo), mean): −66.00%
- UACR Benefit assessment [9]: Benefit
- MALB [9]: 3.0 mg/L and 0.4 mg/L and 0.6 mg/L and 69.5 mg/L and 3.6 mg/L
- UACR [9]: 5.6 mg/g and 1.2 mg/g and 2.3 mg/g and 59.8 mg/g and 11.2 mg/g
- MALB [10]: 15.4 ± 30.3 mg/L
- UACR [10]: 16.0 ± 24.8 mg/g
- UACR Benefit assessment (2 mg/kg oral once a day, 8 weeks, listed as malate of compound of formula I): all showed benefits
- MALB [11]: 1.2 mg/L and 0.6 mg/L and 5.3 mg/L and 145.4 mg/L and 6.8 mg/L
- UACR [11]: 3.5 mg/g and 2.5 mg/g and 15.3 mg/g and 122.1 mg/g and 29.3 mg/g
- MALB [12]: 31.9 ± 63.5 mg/L
- UACR [12]: 34.5 mg/g
- W8 UACR decreased by on average, compared with the baseline (2 mg/kg qd, 3/5 animals with moderate to severe proteinuria, p<0.01 vs placebo): 66.00±17.42%
- UACR of W8 decreased by, compared with the baseline (2 mg/kg qd, three animals): 50%-80%
- UACR change rate (5 mg/kg oral once a day, per animal + Mean ± SD (4/6 animals in statistics, p < 0.05 vs placebo)): 16.75% and −64.10% and −68.62% and −72.14%
- UACR change rate (5 mg/kg oral once a day, per animal + Mean ± SD (4/6 animals in statistics, p < 0.05 vs placebo), mean): −46.87 ± 36.93 %
- UACR Benefit assessment [13]: all showed benefits and One animal showed no benefit and No and Benefit
- MALB [13]: 72.4 mg/L and 1.2 mg/L and 3.4 mg/L and 112.3 mg/L and 0.3 mg/L and 21.6 mg/L
- UACR [13]: 138.4 mg/g and 5.7 mg/g and 9.1 mg/g and 87.7 mg/g and 1.8 mg/g and 35.1 mg/g
- MALB [14]: 35.2 ± 46.7 mg/L
- UACR [14]: 46.3 ± 55.4 mg/g
- MALB [15]: 93.2 mg/L and 4.3 mg/L and 46.5 mg/L and 59.3 mg/L and 2.1 mg/L and 26.0 mg/L
- UACR [15]: 118.5 mg/g and 10.5 mg/g and 25.4 mg/g and 279.3 mg/g and 2.4 mg/g and 125.8 mg/g
- MALB [16]: 38.6 ± 35.0 mg/L
- UACR [16]: 93.7 ± 105.9 mg/g
- UACR of W8 decreased by, compared with the baseline (5 mg/kg qd, 3 animals): 60%-70%
- W8 UACR decreased by on average, compared with the baseline (5 mg/kg qd, 4/6 animals with moderate-to-severe proteinuria, p<0.05 vs placebo): 46.87±36.93%
- effect on UACR and eGFRcreat-cys compared with Valsartan (2-5 mg/kg qd for 8 weeks): equivalent to the Valsartan group

From patent US20230330093A1, “APPLICATION OF NITROGEN-CONTAINING SATURATED HETEROCYCLIC COMPOUND” (SHANGHAI PHARMACEUTICALS HOLDING CO., LTD., priority 2020, published 2023)
